Experimental data: patent US5621133A (priority 1995, dated 1997)
Where a name gives a salt, the structure may show the parent alone. Read-outs that look alike come from different tables or passages of the source.

Legend:
dopamine D-2 receptor = dopamine D-2 receptor (Rattus norvegicus, UniProt P61169); experiment: biochemical; format: binding; settings: rat caudate, [125I]-p-aminophenylethyl spiroperidol; read-out: D-2 Ki
Experimental: Homogenized rat caudate was the source of the D-2 receptors. […] The molar affinity of the compound for the receptor binding site was calculated by the same method used for the D-1 receptor assay, assuming a competitive interaction between the compound and the radiolabeled ligand.

dopamine D-1 receptor [1] = target: T1, dopamine D-1 receptor (Rattus norvegicus, UniProt P18901); settings: read-out: D-1 Ki; rat caudate, [125I]SCH-23982
T1 sequence (P18901 whole entry): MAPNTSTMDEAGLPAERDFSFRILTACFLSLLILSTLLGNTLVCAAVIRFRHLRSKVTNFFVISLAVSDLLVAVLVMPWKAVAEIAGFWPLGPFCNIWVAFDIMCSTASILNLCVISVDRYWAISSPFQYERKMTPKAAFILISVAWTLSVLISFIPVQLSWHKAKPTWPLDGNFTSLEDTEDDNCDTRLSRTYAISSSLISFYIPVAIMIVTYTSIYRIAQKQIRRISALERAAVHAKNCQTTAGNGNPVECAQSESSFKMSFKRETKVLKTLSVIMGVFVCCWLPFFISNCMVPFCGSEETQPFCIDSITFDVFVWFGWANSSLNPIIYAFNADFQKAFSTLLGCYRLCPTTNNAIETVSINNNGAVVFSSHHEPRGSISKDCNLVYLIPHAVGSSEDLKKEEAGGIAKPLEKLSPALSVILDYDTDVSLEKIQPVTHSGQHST
Source text: (§1) The compounds compete with the radiolabeled ligand for occupancy of the receptors and the molar potency of each compound was quantified.
(§2) The Ki values are inversely proportional to the affinity of the compound for the receptor.

dopamine D-1 receptor [2] = settings: for Intrinsic Activity (adenylate cyclase assay): dopamine = 100, goldfish retina or rat striatum; for EC50: read-out: EC50 (agonist activity in adenylate cyclase assay), tissue from goldfish retina or rat striatum
Experimental: In order to determine agonist activity, cell-free tissue homogenates are incubated in an ionic buffer solution containing ATP and the compound being evaluated. The tissue was obtained from either goldfish retina or rat striatum.

[3] = system: striatal dopamine receptors; experiment: Rotation behavior assay of in vivo activity (6-hydroxydopamine lesioned rat rotational model); settings: for ED50 s.c. (rotation behavior): injected subcutaneously
dopamine D-1 receptor [4] = target: T1, dopamine D-1 receptor; experiment: biochemical; settings: D-1 Ki, rat caudate, [125I]SCH-23982
Source text: as §1, §2

dopamine D-2 receptor, sequence (P61169 whole entry): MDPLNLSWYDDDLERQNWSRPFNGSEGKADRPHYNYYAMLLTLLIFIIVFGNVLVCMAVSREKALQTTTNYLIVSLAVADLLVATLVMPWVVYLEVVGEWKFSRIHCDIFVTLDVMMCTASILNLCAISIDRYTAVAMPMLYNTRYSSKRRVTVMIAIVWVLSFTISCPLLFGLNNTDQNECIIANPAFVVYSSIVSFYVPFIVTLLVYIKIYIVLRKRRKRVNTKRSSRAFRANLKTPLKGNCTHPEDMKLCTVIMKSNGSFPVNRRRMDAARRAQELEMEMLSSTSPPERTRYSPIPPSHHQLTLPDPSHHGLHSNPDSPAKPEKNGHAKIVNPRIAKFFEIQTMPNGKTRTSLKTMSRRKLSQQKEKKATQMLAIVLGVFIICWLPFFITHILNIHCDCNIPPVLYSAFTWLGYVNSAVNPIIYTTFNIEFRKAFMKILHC

Structure (SMILES)	Ki (dopamine D-2 receptor)	Ki (dopamine D-1 receptor [1])	Intrinsic Activity (adenylate cyclase assay) (dopamine D-1 receptor [2])	EC50 (dopamine D-1 receptor [2])	Ki (dopamine D-1 receptor [4])	Intrinsic Activity (adenylate cyclase assay) (dopamine D-1 receptor [2]; Hydrobromide)	EC50 (dopamine D-1 receptor [2]; Hydrobromide)	ED50 s.c. (rotation behavior) [3]	ED50 oral (rotation behavior) [3]
CC(C)OC(=O)CCC(=O)Oc1ccc2c(c1OC(=O)CCC(=O)OC(C)C)CC(c1ccccc1)C=C2CN (stereo not drawn) [Example 24]	> 10000 nM	900 nM	71	500 nM	–	–	–	–	–
C=CCNC[C@@H]1O[C@H](c2ccccc2)Cc2c1ccc(O)c2O (stereo in doubt) [Example 130]	190 nM	51 nM	82	170 nM	–	–	–	0.13 µmol/kg	8 µmol/kg
NC[C@@H]1O[C@H](CCOCc2ccccc2)Cc2c1ccc(O)c2O (relative stereo) [Example 77]	500 nM	2300 nM	107	93 nM	–	–	–	–	–
CCC1Cc2c(ccc(O)c2O)C(CN)O1 (stereo not drawn) [Example 67]	–	1900 nM	92	230 nM	–	–	–	–	–
CCCN(CCC)CC1=CC(c2ccccc2)Cc2c1ccc(O)c2O (stereo not drawn) [Example 152]	12000 nM	59000 nM	–	–	–	–	–	–	–
C[C@H](N)C1OC(c2ccccc2)Cc2c1ccc(O)c2O (stereo partly drawn) [Example 108, [1,3-cis]1-(1S-(1-Amino)ethyl)-5,6-dihydroxy-3-phenyl-3,4-dihydro-1H-2-benzopyran]	> 10000 nM	4100 nM	–	–	–	–	–	–	–
CCCNCC1=CC(c2ccccc2)Cc2c1ccc(O)c2O (stereo not drawn) [Example 151]	2500 nM	5800 nM	58	7000 nM	–	–	–	–	–
CC[C@H]1Cc2c(ccc(O)c2O)[C@@H](CN)O1 (relative stereo) [Example 51]	3900 nM	–	88	180 nM	235 nM	–	–	7 µmol/kg	–
NCC1c2ccc(O)c(O)c2CC(c2ccccc2)C1CCO (stereo not drawn) [Example 45, [1,2-trans]1-Aminomethyl-5,6-dihydroxy-2-(2'-hydroxy-1'-ethyl)-3-phenyl-1,2,3,4-tetrahydronaphthalene Formic Acid Salt]	> 10000 nM	4600 nM	62	60 nM	–	–	–	–	–
CNC[C@@H]1O[C@H](C23CC4CC(CC(C4)C2)C3)Cc2c1cc(F)c(O)c2O [Example 145]	12000 nM	–	49	38 nM	67 nM	–	–	0.31 µmol/kg	–
CCCCCCCC[C@@H]1Cc2c(ccc(O)c2O)[C@H](CN)O1 (relative stereo) [Example 64]	540 nM	–	80	390 nM	640 nM	–	–	58 µmol/kg	–
C=CC(C)[C@H]1Cc2c(ccc(O)c2O)[C@@H](CN)O1 (relative stereo) [Example 105]	1000 nM	–	110	9 nM	17 nM	–	–	0.17 µmol/kg	–

Second part, led by results:

Ki (dopamine D-2 receptor)	Ki (dopamine D-1 receptor [1])	Intrinsic Activity (adenylate cyclase assay) (dopamine D-1 receptor [2])	EC50 (dopamine D-1 receptor [2])	Ki (dopamine D-1 receptor [4])	Intrinsic Activity (adenylate cyclase assay) (dopamine D-1 receptor [2]; Hydrobromide)	EC50 (dopamine D-1 receptor [2]; Hydrobromide)	Structure (SMILES)	ED50 s.c. (rotation behavior) [3]	ED50 oral (rotation behavior) [3]
1800 nM	20 nM	75	30 nM	–	–	–	CN1CCC2=C(C1)c1ccc(O)c(O)c1CC2c1ccccc1 (stereo not drawn) [Example 247]	0.014 µmol/kg	–
17000 nM	1800 nM	105	31 nM	–	–	–	CCCCCC(NC(=O)CCl)[C@@H]1Cc2c(ccc(O)c2O)[C@H](CN)O1 (relative stereo) [Example 165]	–	–
4600 nM	390 nM	65	17 nM	–	–	–	Oc1ccc2c(c1O)C[C@H](c1ccccc1)C[C@H]2[C@H]1CCCN1 (relative stereo) [Example 181, [1,3-cis]5.6-Dihydroxy-3-phenyl-1-(2'-pyrrolidinyl)-1,2,3,4-tetrahydronaph-thalene Hydrobromide]	–	–
> 10000 nM	550 nM	83	300 nM	–	–	–	NC[C@@H]1C[C@H](C23CC4CC(CC(C4)C2)C3)Cc2c1ccc(O)c2O (relative stereo) [Example 235]	–	–
3200 nM	190 nM	78	220 nM	–	–	–	CN1CCC2=C(C1)c1ccc(O)c(O)c1CC2c1ccccc1 (stereo not drawn) [Example 246]	0.54 µmol/kg	–
830 nM	790 nM	140	1450 nM	–	–	–	CCCCCC(NC(C)=O)[C@@H]1Cc2c(ccc(O)c2O)[C@H](CN)O1 (relative stereo) [Example 163]	–	–
600 nM	–	32	200 nM	50 nM	–	–	CN1CCC2=C(C1)c1ccc(O)c(O)c1CC21CCCCCC1 [Example 249]	0.12 µmol/kg	–
1000 nM	–	108	20 nM	30 nM	–	–	CNCC1OC(CC(C)(C)C)Cc2c1ccc(O)c2O (stereo not drawn) [Example 217]	0.12 µmol/kg	–
> 10000 nM	–	71	280 nM	30 nM	–	–	CN(C)C[C@@H]1O[C@H](C2CCCCC2)Cc2c1ccc(O)c2O (relative stereo) [Example 228]	0.1 µmol/kg	–
> 10000 nM	850 nM	53	3100 nM	–	–	–	CCNCC1=CC(c2ccccc2)Cc2c1ccc(O)c2O (stereo not drawn) [Example 153]	–	–
1400 nM	–	–	–	54 nM	83	33 nM	Oc1ccc2c(c1O)CC1(CCCCCC1)C1=C2CNCC1 [Example 199, Spiro[cycloheptane-1,5'-(1',2',3',4',5',6'-hexahydrobenzo[h]isoquinoline)]-7',8'-diol Hydrobromide]	1.5 µmol/kg	31 µmol/kg
1500 nM	–	100	68 nM	210 nM	–	–	Oc1ccc2c(c1O)CC1(CCCCC1)C1=C2CNCC1 [Example 205]	3.4 µmol/kg	–
2900 nM	–	48	400 nM	400 nM	–	–	Oc1ccc2c(c1O)CC1(CCCCCCCC1)C1=C2CNCC1 [Example 241]	> 3 µmol/kg	–
3100 nM	–	72	400 nM	410 nM	–	–	CN(C)CC1OC(CC(C)(C)C)Cc2c1ccc(O)c2O (stereo not drawn) [Example 220]	0.52 µmol/kg	–
> 10000 nM	–	84	80 nM	90 nM	–	–	NCC1OC2(CCCCCCCC2)Cc2c1ccc(O)c2O (stereo not drawn) [Example 221]	> 3 µmol/kg	–
3200 nM	–	87	40 nM	10 nM	–	–	CC1([C@@H]2Cc3c(ccc(O)c3O)[C@H](CN)O2)CCCCC1 (relative stereo) [Example 222]	0.3 µmol/kg	–
710 nM	670 nM	107	690 nM	–	–	–	CCCCCC(NC(C)=O)[C@@H]1Cc2c(ccc(O)c2O)[C@H](CN)O1 (relative stereo) [Example 162]	–	–
